Counter-ions that a name gives are not always drawn. Like-named read-outs stand apart in the source and are kept apart here.
Assays:
[1] = Phase 1 ethinyl estradiol/norethindrone interaction study: plasma PK; type: in vivo, human; conditions: for Geometric least-squares mean ratio, AUC0-∞ / Geometric least-squares mean ratio, AUClast / Geometric least-squares mean ratio, Cmax: (90% CI); for AUCτ: n = 23, arithmetic mean (SD)
CYP2C19 [2] = conditions: cultured human hepatocytes; ref data on file; cited from earlier work
[3] = cited from earlier work
[4] = active drug released from prodrug; cited from earlier work
CYP2C19 [5] = conditions: pooled human liver microsomes; ref data on file; cited from earlier work
[6] = coadministration with lopinavir/ritonavir; cited from earlier work
Safety [7] = type: in vivo, human; conditions: rifampin study, by treatment period
[8] = type: in vivo, human
CYP3A4 [9] = target: T1, CYP3A4 (Homo sapiens, UniProt P08684); conditions: cultured human hepatocytes; ref data on file; cited from earlier work
T1 sequence (P08684 whole entry): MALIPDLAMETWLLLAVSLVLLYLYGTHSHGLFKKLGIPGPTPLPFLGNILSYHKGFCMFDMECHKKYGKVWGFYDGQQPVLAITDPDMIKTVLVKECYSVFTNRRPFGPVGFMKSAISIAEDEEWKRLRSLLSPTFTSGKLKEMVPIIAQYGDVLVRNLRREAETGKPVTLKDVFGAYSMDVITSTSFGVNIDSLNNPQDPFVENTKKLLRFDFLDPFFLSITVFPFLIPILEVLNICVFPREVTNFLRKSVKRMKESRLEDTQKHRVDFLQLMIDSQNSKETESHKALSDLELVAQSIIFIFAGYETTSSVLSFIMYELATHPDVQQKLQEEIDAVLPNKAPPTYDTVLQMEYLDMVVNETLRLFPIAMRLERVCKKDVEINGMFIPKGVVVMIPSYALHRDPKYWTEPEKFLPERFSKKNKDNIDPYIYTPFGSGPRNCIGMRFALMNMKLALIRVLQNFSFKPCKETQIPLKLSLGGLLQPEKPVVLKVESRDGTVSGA

Safety [10] = type: in vivo, human; conditions: ketoconazole study, by treatment period
CYP2D6 = conditions: pooled human liver microsomes; ref data on file; cited from earlier work
CYP4A11 = conditions: pooled human liver microsomes; ref data on file; cited from earlier work
CYP2C8 [11] = conditions: CYP2C8-expressing human liver microsomes; ref data on file; cited from earlier work
CYP3A4 [12] = target: T1, CYP3A4; conditions: CYP3A4-expressing human liver microsomes; ref data on file; cited from earlier work
[13] = active drug released from prodrug; cited from earlier work; remark: listed apart in the source
[14] = type: in vivo, human; remark: listed apart in the source
Safety [15] = type: in vivo, human; conditions: midazolam study, by treatment period
CYP2C9 [16] = conditions: in vitro; ref unpublished data; cited from earlier work
CYP1A2 [17] = conditions: cultured human hepatocytes; ref data on file; cited from earlier work
CYP2B6 [18] = conditions: CYP2B6-expressing human liver microsomes; ref data on file; cited from earlier work
CYP3A4 [19] = target: T1, CYP3A4; experiment: Clinical CYP3A4 drug-drug interaction classification; type: in vivo
CYP3A5 = conditions: CYP3A5-expressing human liver microsomes; ref data on file; cited from earlier work
CYP1A2 [20] = conditions: pooled human liver microsomes; ref data on file; cited from earlier work
CYP2E1 = conditions: pooled human liver microsomes; ref data on file; cited from earlier work
CYP2C9 [21] = conditions: cultured human hepatocytes; ref data on file; cited from earlier work
[22] = Phase 1 rifampin interaction study: plasma PK of isavuconazole; type: in vivo, human
Safety [23] = type: in vivo, human; conditions: ethinyl estradiol/norethindrone study, by treatment period
CYP2B6 [24] = conditions: cultured human hepatocytes; ref data on file; cited from earlier work
CYP2A6 = conditions: pooled human liver microsomes; ref data on file; cited from earlier work
CYP2C9 [25] = conditions: pooled human liver microsomes; ref data on file; cited from earlier work
CYP2C8 [26] = conditions: cultured human hepatocytes; ref data on file; cited from earlier work
P-glycoprotein = conditions: in vitro; ref unpublished data; cited from earlier work
CYP3A7 = conditions: CYP3A7-expressing human liver microsomes; ref data on file; cited from earlier work
CYP2B6 [27] = conditions: in vitro; ref unpublished data; cited from earlier work
esterases = conditions: in the gut and blood; cited from earlier work
CYP3A4 [28] = conditions: cited from earlier work
CYP3A4 [29] = conditions: cited from earlier work; remark: listed apart in the source
[30] = ethinyl estradiol, presence vs absence of isavuconazole
[31] = ethinyl estradiol: + isavuconazole vs alone
[32] = both, human, plasma, po, 200 mg
[33] = isavuconazole + ketoconazole vs isavuconazole alone, (90% CI)
[34] = presence vs absence of ketoconazole 200 mg BID
[35] = coadministration with rifampin 600 mg QD vs isavuconazole alone
[36] = isavuconazole + rifampin vs isavuconazole alone, (90% CI)
[37] = midazolam + isavuconazole vs midazolam alone, (90% CI)
[38] = midazolam, presence vs absence of isavuconazole
[39] = norethindrone, coadministration with isavuconazole vs alone
[40] = norethindrone: + isavuconazole vs alone

SMILES: C#C[C@]1(O)CC[C@H]2[C@@H]3CCc4cc(O)ccc4[C@H]3CC[C@@]21C [Ethinyl Estradiol, ethinyl estradiol]
- increase in mean AUC0-∞ [1, 30]: 8%
- increase in mean AUClast [1, 30]: 10%
- increase in mean Cmax [1, 30]: 14%
- Geometric least-squares mean ratio, AUC0-∞ [1, 31]: 108 (103, 113) %
- Geometric least-squares mean ratio, AUClast [1, 31]: 110 (104, 116) %
- Geometric least-squares mean ratio, Cmax [1, 31]: 114 (103, 126) %
- half-life ([1]; female, human, plasma, po): 20.5 h

SMILES: C[C@@H](c1nc(-c2ccc(C#N)cc2)cs1)[C@](O)(Cn1cncn1)c1cc(F)ccc1F [Isavuconazole, isavuconazole]
- increase in CYP2C19 mRNA levels (CYP2C19 [2]): No isavuconazole‐induced increases
- increase in S-(+)-mephenytoin 4'-hydroxylation activity (CYP2C19) (CYP2C19 [2]): No isavuconazole‐induced increases
- Oral bioavailability [3]: 98%
- food or pH effect on absorption [3]: no evidence of a clinically relevant food or pH effect
- permeability (in words) [4]: highly permeable
- correlation of isavuconazole metabolism with CYP2C19 activity (CYP2C19 [5]): No correlations
- increase in isavuconazole exposure [6]: approximately 2 fold
- subjects who experienced TEAEs (Safety [7]): 19 n
- subjects with drug-related TEAEs (Safety [7]): 17 n
- Cmax ([8]; both, human, plasma, oral, 200 mg): 5200 ng/mL
- mean AUCτ in the presence vs absence of midazolam (in words) ([8]; isavuconazole 200 mg QD): comparable
- mean Cmax in the presence vs absence of midazolam (in words) ([8]; isavuconazole 200 mg QD): comparable
- increase in CYP3A4 mRNA (CYP3A4 [9]): ≤ 6.4 fold
- increase in testosterone hydroxylation activity (CYP3A4) (CYP3A4 [9]): up to 3.4 fold
- subjects reporting TEAEs (Safety [10]): 2 (16.7%) subjects
- Cmax ([1]; female, human, plasma, oral, 200 mg): 5800 ng/mL
- AUCτ ([1]; isavuconazole 200 mg QD + ethinyl estradiol 35 μg/norethindrone 1 mg, day 13): 81.4 (19.0) h·μg/mL
- AUCτ ([1]; isavuconazole 200 mg QD alone, day 12): 80.8 (18.7) h·μg/mL
- correlation of isavuconazole metabolism with CYP2D6 activity (CYP2D6): No correlations
- correlation of isavuconazole metabolism with CYP4A11 activity (CYP4A11): No correlations
- ratio of the remaining isavuconazole (CYP2C8 [11]): > 98%
- ratio of the remaining isavuconazole (CYP3A4 [12]): 33.8%
- solubility (in words) [13]: poorly soluble
- AUC(0-inf) [14, 32]: 84800 ng·h/mL
- AUC(0-t) [14, 32]: 64900 ng·h/mL
- Cmax [14, 32]: 2200 ng/mL
- Tmax [14, 32]: 2 h
- half-life [14, 32]: 117 h
- CL/F ([14]; isavuconazole 200 mg single oral dose alone, n = 12, arithmetic mean (SD)): 2.5 (0.6) L/h
- Geometric least-squares mean ratio, AUC0-∞ [14, 33]: 522 (409, 666) %
- Geometric least-squares mean ratio, AUClast [14, 33]: 373 (319, 435) %
- Geometric least-squares mean ratio, Cmax [14, 33]: 109 (93, 127) %
- increase in mean AUC0-∞ [14, 34]: 422%
- increase in mean AUClast [14, 34]: 273%
- increase in mean Cmax [14, 34]: 9%
- subjects who experienced TEAEs (Safety [15]): 10 n
- subjects with drug-related TEAEs (Safety [15]): 5 n
- substrate of CYP2C9 (CYP2C9 [16]): not a substrate
- maximum increase in CYP1A2 mRNA (CYP1A2 [17]): 5.4 fold
- maximum increase in phenacetin O-dealkylase activity (CYP1A2) (CYP1A2 [17]): 2.8 fold
- ratio of the remaining isavuconazole (CYP2B6 [18]): > 98%
- classification as inhibitor of CYP3A4 (CYP3A4 [19]; from midazolam coadministration in healthy adults, in vivo): moderate inhibitor
- classification as substrate of CYP3A4 (CYP3A4 [19]; from rifampin and ketoconazole coadministration in healthy adults): sensitive substrate
- ratio of the remaining isavuconazole (CYP3A5): 68.4%
- correlation of isavuconazole metabolism with CYP1A2 activity (CYP1A2 [20]): No correlations
- correlation of isavuconazole metabolism with CYP2E1 activity (CYP2E1): No correlations
- maximum increase in CYP2C9 mRNA (CYP2C9 [21]): 3.1 fold
- maximum increase in diclofenac 4'-hydroxylase activity (CYP2C9) (CYP2C9 [21]): none
- decrease in mean AUC0-∞ [22, 35]: 97%
- decrease in mean AUClast [22, 35]: 97%
- decrease in mean AUCτ [22, 35]: 90%
- decrease in mean Cmax [22, 35]: 75%
- Geometric least-squares mean ratio, AUC0-∞ [22, 36]: 3 (2, 3) %
- Geometric least-squares mean ratio, AUClast [22, 36]: 3 (3, 3) %
- Geometric least-squares mean ratio, AUCτ [22, 36]: 10 (9, 11) %
- Geometric least-squares mean ratio, Cmax [22, 36]: 25 (23, 27) %
- Tmax ([22]; male, human, plasma, po): 2 h
- subjects who experienced TEAEs (Safety [23]): 6 n
- subjects with drug-related TEAEs (Safety [23]): 3 subjects
- maximum increase in CYP2B6 mRNA (CYP2B6 [24]): 11.4 fold
- maximum increase in bupropion hydroxylase activity (CYP2B6) (CYP2B6 [24]): 13.4 fold
- correlation of isavuconazole metabolism with CYP2A6 activity (CYP2A6): No correlations
- correlation of isavuconazole metabolism with CYP2C9 activity (CYP2C9 [25]): No correlations
- maximum increase in CYP2C8 mRNA (CYP2C8 [26]): 4.3 fold
- maximum increase in amodiaquine N-dealkylase activity (CYP2C8) (CYP2C8 [26]): 2.6 fold
- substrate of P-glycoprotein (P-glycoprotein): not a substrate
- ratio of the remaining isavuconazole (CYP3A7): > 98%
- substrate of CYP2B6 (CYP2B6 [27]): not a substrate

SMILES: CC(=O)N1CCN(c2ccc(OCC3COC(Cn4ccnc4)(c4ccc(Cl)cc4Cl)O3)cc2)CC1 (centres unmarked) [Ketoconazole, ketoconazole, reference compound]
- subjects reporting TEAEs (Safety [10]): no subjects
- Geometric least-squares mean ratio, Cmax ([14]; ketoconazole + isavuconazole vs ketoconazole alone, 90% CI 105, 134): 118%
- Geometric least-squares mean ratio, AUCτ ([14]; ketoconazole + isavuconazole vs ketoconazole alone, 90% CI 112, 144): 127%

SMILES: Cc1ncc2n1-c1ccc(Cl)cc1C(c1ccccc1F)=NC2 [Midazolam, midazolam]
- AUC(0-inf) ([8]; both, human, plasma, po, 3 mg): 46 ng·h/mL
- AUC(0-t) ([8]; both, human, plasma, po, 3 mg): 44.5 ng·h/mL
- Cmax ([8]; both, human, plasma, po, 3 mg): 10.7 ng/mL
- Tmax ([8]; both, human, plasma, po, 3 mg): 1 h
- half-life ([8]; both, human, plasma, po, 3 mg): 5.4 h
- CL/F ([8]; midazolam 3 mg single oral dose alone, day 1, n = 23, arithmetic mean (SD)): 72.1 (24.6) L/h
- Geometric least-squares mean ratio, AUC0-∞ [8, 37]: 203 (173, 238) %
- Geometric least-squares mean ratio, AUClast [8, 37]: 206 (175, 243) %
- Geometric least-squares mean ratio, Cmax [8, 37]: 172 (144, 205) %
- increase in mean AUC0-∞ [8, 38]: 103%
- increase in mean AUClast [8, 38]: 106%
- increase in mean Cmax [8, 38]: 72%
- subjects who experienced TEAEs (Safety [15]): 9 n
- subjects with drug-related TEAEs (Safety [15]): 6 n

SMILES: C#C[C@]1(O)CC[C@H]2[C@@H]3CCC4=CC(=O)CC[C@@H]4[C@H]3CC[C@@]21C [Norethindrone, norethindrone]
- Tmax ([1]; female, human, plasma, po): 1 h
- half-life ([1]; female, human, plasma, po): 13.1 h
- increase in mean AUC0-∞ [1, 39]: 16%
- increase in mean AUClast [1, 39]: 16%
- increase in mean Cmax [1, 39]: 6%
- Geometric least-squares mean ratio, AUC0-∞ [1, 40]: 116 (109, 123) %
- Geometric least-squares mean ratio, AUClast [1, 40]: 116 (109, 123) %
- Geometric least-squares mean ratio, Cmax [1, 40]: 106 (93, 120) %

SMILES: CO[C@H]1/C=C/O[C@@]2(C)Oc3c(C)c(O)c4c(O)c(c(/C=N/N5CCN(C)CC5)c(O)c4c3C2=O)NC(=O)/C(C)=C\C=C\[C@H](C)[C@H](O)[C@@H](C)[C@@H](O)[C@@H](C)[C@H](OC(C)=O)[C@@H]1C [Rifampin, rifampin, reference compound]
- subjects who experienced TEAEs (Safety [7]): 19 n
- subjects with drug-related TEAEs (Safety [7]): 7 n

SMILES: CNCC(=O)OCc1cccnc1N(C)C(=O)OC(C)[n+]1cnn(C[C@](O)(c2cc(F)ccc2F)[C@@H](C)c2nc(-c3ccc(C#N)cc3)cs2)c1 (some centres unmarked) [isavuconazonium sulfate]
- hydrolysis of prodrug by esterases (esterases): rapid hydrolysis

SMILES: CCC(C)n1ncn(-c2ccc(N3CCN(c4ccc(OCC5COC(Cn6cncn6)(c6ccc(Cl)cc6Cl)O5)cc4)CC3)cc2)c1=O (centres unmarked) [itraconazole]
- increase in exposure of midazolam on coadministration (CYP3A4 [28]): up to 10 fold

SMILES: CC[C@@H]([C@H](C)O)n1ncn(-c2ccc(N3CCN(c4ccc(OC[C@@H]5CO[C@@](Cn6cncn6)(c6ccc(F)cc6F)C5)cc4)CC3)cc2)c1=O [posaconazole]
- increase in exposure of midazolam on coadministration (CYP3A4 [28]): up to 5 fold

SMILES: C[C@@H](c1ncncc1F)[C@](O)(Cn1cncn1)c1ccc(F)cc1F [voriconazole]
- increases in ethinyl estradiol and norethindrone on coadministration (CYP3A4 [29]): less than 2 fold
- increase in midazolam AUC on coadministration (CYP3A4 [28]): approximately 10 fold

Reference: article PMC5298035 (Clinical Pharmacology in Drug Development, 2016)
